Values quoted from earlier work, collected in patent publication EP4772943A1, “ALKALINE AQUEOUS SOLUTION FOR SEMICONDUCTOR, METHOD FOR USE AS LOW-TOXICITY ALKALINE AQUEOUS SOLUTION FOR SEMICONDUCTOR, AND METHOD FOR PRODUCING ALKALINE AQUEOUS SOLUTION FOR SEMICONDUCTOR” (priority 2023, dated 2025).

System: Daphnia sp.
Details: OECD TG202 Daphnia sp. acute immobilization test; converted to hydroxide of the quaternary ammonium ion as 100 mass%

C[N+](C)(C)C.[OH-] [TMAH, Tetramethylammonium hydroxide]
EC50 value: 3 µg/mL
